Earlier results as cited in patent publication US6622729B1, “Selective photodynamic treatment” (priority 1999, dated 2003).

Conditions: SnET2 administered in 0.5 and 1 mg/kg doses

CCOC(=O)C1=Cc2c3nc(cc4nc(cc5[n-]c(cc6[n-]c2c(C)c6CC)c(C)c5CC)C(C)=C4CC)[C@@H](C)[C@]13CC.[Cl-].[Cl-].[Sn] (racemic) [SnET2, tin ethyl etiopurpurin]
systemic toxicity: no apparent systemic toxicity
